Assay results taken from PMC4620497 (Scientific Reports, 2015).
Like-named read-outs stand apart in the source and are kept apart here.

Experiments:
[1] = molecular target: T1, BMX (Homo sapiens, UniProt P51813); test: KINOMEscan panel screen; assay type: binding; conditions: read-out: Percent Control(%)
T1 construct: purchased DiscoveRx KINOMEscan (Ambit Biosciences)

[2] = molecular target: T2, BRSK1 (Homo sapiens, UniProt Q8TDC3); test: KINOMEscan panel screen; assay type: binding; conditions: read-out: Percent Control(%)
T2 construct: purchased DiscoveRx KINOMEscan (Ambit Biosciences)

[3] = molecular target: T3, EGFR(L858R,T790M) (Homo sapiens, UniProt P00533, L858R/T790M); test: KINOMEscan panel screen; assay type: binding; conditions: read-out: Percent Control(%)
T3 construct: purchased DiscoveRx KINOMEscan (Ambit Biosciences)

[4] = molecular target: T4, EIF2AK1 (Homo sapiens, UniProt Q9BQI3); test: KINOMEscan panel screen; assay type: binding; conditions: read-out: Percent Control(%)
T4 construct: purchased DiscoveRx KINOMEscan (Ambit Biosciences)
T4 sequence (Q9BQI3 whole entry): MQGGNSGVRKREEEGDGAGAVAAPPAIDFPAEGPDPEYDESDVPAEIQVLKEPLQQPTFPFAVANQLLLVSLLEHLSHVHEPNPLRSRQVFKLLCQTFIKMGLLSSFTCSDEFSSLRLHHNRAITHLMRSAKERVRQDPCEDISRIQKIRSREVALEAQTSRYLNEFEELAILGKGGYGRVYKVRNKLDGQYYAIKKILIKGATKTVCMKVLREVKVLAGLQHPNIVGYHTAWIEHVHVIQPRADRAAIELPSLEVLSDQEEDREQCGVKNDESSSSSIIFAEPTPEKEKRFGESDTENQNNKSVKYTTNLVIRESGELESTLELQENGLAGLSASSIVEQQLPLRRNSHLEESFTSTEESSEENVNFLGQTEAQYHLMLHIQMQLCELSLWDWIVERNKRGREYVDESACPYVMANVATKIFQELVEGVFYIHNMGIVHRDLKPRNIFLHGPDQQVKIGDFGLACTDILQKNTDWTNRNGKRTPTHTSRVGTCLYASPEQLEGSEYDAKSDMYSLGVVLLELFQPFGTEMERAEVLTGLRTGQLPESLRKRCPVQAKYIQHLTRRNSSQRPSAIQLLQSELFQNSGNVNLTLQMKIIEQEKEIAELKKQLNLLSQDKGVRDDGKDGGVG

[5] = molecular target: T5, EPHA2 (Homo sapiens, UniProt P29317); test: KINOMEscan panel screen; assay type: binding; conditions: read-out: Percent Control(%)
T5 construct: purchased DiscoveRx KINOMEscan (Ambit Biosciences)
T5 sequence (P29317 24-976): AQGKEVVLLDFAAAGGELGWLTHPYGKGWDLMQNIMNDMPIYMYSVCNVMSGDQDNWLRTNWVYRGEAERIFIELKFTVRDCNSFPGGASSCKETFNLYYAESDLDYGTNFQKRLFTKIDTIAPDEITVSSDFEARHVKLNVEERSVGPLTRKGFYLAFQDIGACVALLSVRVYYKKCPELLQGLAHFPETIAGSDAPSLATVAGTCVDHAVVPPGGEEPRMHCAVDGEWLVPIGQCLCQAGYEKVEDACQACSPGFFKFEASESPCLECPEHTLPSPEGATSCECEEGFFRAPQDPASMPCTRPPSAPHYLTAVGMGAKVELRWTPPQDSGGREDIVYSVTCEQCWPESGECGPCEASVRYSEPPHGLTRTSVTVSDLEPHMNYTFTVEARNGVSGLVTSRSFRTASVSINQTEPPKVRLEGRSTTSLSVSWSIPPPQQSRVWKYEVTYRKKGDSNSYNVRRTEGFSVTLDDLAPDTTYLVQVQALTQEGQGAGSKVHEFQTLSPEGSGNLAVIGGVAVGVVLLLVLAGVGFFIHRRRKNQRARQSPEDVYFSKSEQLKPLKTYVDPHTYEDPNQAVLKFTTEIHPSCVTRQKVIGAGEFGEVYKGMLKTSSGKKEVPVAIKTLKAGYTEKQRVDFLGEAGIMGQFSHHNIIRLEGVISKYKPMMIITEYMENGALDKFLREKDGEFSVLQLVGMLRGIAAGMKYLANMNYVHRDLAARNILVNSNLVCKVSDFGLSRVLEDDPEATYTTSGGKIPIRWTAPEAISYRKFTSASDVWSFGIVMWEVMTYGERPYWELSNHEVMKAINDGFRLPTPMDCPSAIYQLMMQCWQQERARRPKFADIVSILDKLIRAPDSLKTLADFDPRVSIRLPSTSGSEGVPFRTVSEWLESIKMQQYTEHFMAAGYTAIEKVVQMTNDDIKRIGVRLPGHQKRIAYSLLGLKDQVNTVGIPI

[6] = molecular target: T6, EPHB6 (Homo sapiens, UniProt O15197); test: KINOMEscan panel screen; assay type: binding; conditions: read-out: Percent Control(%)
T6 construct: purchased DiscoveRx KINOMEscan (Ambit Biosciences)

[7] = molecular target: T7, HIPK4 (Homo sapiens, UniProt Q8NE63); test: KINOMEscan panel screen; assay type: binding; conditions: read-out: Percent Control(%)
T7 construct: purchased DiscoveRx KINOMEscan (Ambit Biosciences)

[8] = molecular target: T8, KIT(D816H) (Homo sapiens, UniProt P10721, D816H); test: KINOMEscan panel screen; assay type: binding; conditions: read-out: Percent Control(%)
T8 construct: purchased DiscoveRx KINOMEscan (Ambit Biosciences)

[9] = molecular target: T9, MAST1 (Homo sapiens, UniProt Q9Y2H9); test: KINOMEscan panel screen; assay type: binding; conditions: read-out: Percent Control(%)
T9 construct: purchased DiscoveRx KINOMEscan (Ambit Biosciences)

[10] = molecular target: T10, RIOK2 (Homo sapiens, UniProt Q9BVS4); test: KINOMEscan panel screen; assay type: binding; conditions: read-out: Percent Control(%)
T10 construct: purchased DiscoveRx KINOMEscan (Ambit Biosciences)
T10 sequence (Q9BVS4 whole entry): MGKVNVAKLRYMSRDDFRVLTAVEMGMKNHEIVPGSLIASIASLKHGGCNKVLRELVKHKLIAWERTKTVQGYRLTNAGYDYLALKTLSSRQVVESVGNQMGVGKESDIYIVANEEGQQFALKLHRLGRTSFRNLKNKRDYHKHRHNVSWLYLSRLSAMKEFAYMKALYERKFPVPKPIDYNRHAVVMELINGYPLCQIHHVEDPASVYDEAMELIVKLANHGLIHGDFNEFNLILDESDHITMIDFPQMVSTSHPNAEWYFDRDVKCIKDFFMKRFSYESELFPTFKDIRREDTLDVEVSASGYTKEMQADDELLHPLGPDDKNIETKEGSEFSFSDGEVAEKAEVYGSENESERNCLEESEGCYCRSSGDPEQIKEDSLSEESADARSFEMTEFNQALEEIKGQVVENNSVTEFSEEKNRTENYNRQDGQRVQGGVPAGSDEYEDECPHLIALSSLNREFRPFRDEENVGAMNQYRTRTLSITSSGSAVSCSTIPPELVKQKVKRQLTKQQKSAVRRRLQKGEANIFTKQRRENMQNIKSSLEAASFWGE

[11] = molecular target: T11, ROCK2 (Homo sapiens, UniProt O75116); test: KINOMEscan panel screen; assay type: binding; conditions: read-out: Percent Control(%)
T11 construct: purchased DiscoveRx KINOMEscan (Ambit Biosciences)
T11 sequence (O75116 whole entry): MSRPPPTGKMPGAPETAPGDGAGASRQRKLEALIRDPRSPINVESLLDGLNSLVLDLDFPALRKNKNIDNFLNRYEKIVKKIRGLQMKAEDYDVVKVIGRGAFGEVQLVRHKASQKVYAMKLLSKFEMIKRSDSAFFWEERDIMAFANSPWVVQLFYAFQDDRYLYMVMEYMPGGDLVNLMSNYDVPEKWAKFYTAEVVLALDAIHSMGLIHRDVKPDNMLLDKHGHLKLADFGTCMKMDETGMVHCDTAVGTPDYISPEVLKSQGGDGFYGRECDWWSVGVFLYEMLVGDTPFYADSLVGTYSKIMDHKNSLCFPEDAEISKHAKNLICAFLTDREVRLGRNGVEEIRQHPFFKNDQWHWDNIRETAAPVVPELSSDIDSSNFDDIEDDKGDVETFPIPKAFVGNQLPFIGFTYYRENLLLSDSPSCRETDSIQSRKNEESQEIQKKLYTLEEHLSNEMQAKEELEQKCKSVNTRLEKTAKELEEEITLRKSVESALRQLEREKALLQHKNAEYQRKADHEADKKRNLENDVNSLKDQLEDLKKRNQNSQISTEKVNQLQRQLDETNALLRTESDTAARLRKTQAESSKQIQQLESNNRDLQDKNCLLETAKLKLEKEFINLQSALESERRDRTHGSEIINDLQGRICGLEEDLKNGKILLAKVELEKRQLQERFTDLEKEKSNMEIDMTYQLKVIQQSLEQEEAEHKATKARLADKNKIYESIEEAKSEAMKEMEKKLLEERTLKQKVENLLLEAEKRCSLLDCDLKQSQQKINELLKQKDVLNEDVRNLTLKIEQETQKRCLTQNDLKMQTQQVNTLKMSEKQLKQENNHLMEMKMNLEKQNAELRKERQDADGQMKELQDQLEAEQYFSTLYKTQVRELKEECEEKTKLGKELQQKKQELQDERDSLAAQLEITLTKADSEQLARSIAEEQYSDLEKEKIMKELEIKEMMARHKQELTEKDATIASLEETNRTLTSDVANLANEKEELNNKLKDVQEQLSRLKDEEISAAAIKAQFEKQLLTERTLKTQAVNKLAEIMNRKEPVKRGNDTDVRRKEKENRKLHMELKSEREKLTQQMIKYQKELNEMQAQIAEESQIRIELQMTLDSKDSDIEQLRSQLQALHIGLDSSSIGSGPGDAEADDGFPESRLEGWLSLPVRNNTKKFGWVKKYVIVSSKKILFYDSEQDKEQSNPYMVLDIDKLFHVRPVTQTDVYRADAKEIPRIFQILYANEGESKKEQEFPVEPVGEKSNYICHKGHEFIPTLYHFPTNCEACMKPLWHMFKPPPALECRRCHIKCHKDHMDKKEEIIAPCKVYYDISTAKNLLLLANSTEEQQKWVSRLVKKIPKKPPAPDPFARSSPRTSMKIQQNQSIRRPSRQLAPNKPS

[12] = molecular target: T12, RPS6KA4(Kin.Dom.2-C-terminal) (Homo sapiens, UniProt O75676); test: KINOMEscan panel screen; assay type: binding; conditions: read-out: Percent Control(%)
T12 construct: RPS6KA4(Kin.Dom.2-C-terminal); purchased DiscoveRx KINOMEscan (Ambit Biosciences)
T12 sequence (O75676 411-674 limits assumed): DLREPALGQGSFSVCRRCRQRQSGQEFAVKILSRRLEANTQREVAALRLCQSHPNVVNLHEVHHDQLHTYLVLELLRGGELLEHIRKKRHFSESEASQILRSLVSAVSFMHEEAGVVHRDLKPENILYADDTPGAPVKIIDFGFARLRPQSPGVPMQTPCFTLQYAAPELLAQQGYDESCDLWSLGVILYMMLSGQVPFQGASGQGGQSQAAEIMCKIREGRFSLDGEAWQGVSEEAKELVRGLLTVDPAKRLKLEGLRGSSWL

[13] = molecular target: T13, SBK1 (Homo sapiens, UniProt Q52WX2); test: KINOMEscan panel screen; assay type: binding; conditions: read-out: Percent Control(%)
T13 construct: purchased DiscoveRx KINOMEscan (Ambit Biosciences)
T13 sequence (Q52WX2 whole entry): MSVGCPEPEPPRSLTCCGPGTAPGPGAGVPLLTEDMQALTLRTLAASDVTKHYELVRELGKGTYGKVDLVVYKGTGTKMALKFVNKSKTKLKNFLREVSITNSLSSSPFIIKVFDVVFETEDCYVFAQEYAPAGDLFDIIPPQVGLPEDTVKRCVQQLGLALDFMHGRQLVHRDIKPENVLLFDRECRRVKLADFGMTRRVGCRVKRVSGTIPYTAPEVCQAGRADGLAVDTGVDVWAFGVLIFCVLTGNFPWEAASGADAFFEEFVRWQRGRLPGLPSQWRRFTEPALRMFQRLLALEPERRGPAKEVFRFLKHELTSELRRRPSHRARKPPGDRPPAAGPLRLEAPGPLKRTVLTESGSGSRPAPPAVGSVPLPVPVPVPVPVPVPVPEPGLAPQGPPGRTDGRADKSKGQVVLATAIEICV

[14] = molecular target: T14, TAOK1 (Homo sapiens, UniProt Q7L7X3); test: KINOMEscan panel screen; assay type: binding; conditions: read-out: Percent Control(%)
T14 construct: purchased DiscoveRx KINOMEscan (Ambit Biosciences)

[15] = molecular target: T15, TRKA (Homo sapiens, UniProt P04629); test: KINOMEscan panel screen; assay type: binding; conditions: read-out: Percent Control(%)
T15 construct: purchased DiscoveRx KINOMEscan (Ambit Biosciences)
T15 sequence (P04629 33-796): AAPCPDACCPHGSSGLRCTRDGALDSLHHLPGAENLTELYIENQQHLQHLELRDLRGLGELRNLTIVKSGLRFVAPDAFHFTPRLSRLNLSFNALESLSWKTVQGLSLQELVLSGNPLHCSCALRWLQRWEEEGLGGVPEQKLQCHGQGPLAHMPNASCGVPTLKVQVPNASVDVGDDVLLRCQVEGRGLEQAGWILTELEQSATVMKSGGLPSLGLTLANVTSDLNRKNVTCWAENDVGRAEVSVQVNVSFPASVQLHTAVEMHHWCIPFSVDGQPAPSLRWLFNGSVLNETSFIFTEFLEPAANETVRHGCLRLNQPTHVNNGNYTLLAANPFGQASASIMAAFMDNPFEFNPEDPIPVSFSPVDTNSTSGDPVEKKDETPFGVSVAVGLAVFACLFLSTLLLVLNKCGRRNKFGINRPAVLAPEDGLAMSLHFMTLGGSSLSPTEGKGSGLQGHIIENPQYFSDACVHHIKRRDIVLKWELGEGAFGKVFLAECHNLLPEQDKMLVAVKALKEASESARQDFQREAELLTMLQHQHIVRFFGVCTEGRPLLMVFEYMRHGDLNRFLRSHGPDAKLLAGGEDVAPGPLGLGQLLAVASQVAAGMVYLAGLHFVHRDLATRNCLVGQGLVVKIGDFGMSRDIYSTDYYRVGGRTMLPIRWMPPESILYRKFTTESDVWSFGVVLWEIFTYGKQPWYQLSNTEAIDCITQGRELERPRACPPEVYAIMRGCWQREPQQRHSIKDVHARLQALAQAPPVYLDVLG

[16] = tested on: Wnt/β-catenin signaling in STF3a cells; test: STF3a SuperTopFlash luciferase reporter assay; assay type: cell-based; conditions: 24 h
Method: The cell line STF3a, which stably expresses both the STF (SuperTopFlash) luciferase reporter promoter and the wnt3a gene was used to determine whether SKLB-677 can block the Wnt/β-catenin signaling. […]. […] Here we can conclude that the SKLB-677-mediated blockade of Wnt/β-catenin signaling is not due to FLT3 inhibition. We then examined whether the first-generation FLT3 inhibitors could inhibit Wnt/β-catenin signaling. […].
STF3a cells (8 × 10^3) were seeded overnight in 96-well plates (triplicate wells per treatment). Cells were treated with 0.1% DMSO or tested compounds for 24 h with Luciferase assay system (Promega) performed according to the manufacturer’s instructions. […] The reporter activity was expressed as relative values compared with vehicle control.
Figure 3 Effects of SKLB-677 on Wnt/β-catenin signaling. […]. All data points are means of triplicates ± SD. ns, not statistically significant, **P < 0.01, ***P < 0.005 among groups. […]. (c) STF3a cells were incubated with various concentrations of SKLB-677 for 24 h.The cell lysates were detected using the antibodies against S33/37/T41 Non-phospho β-catenin (active β-catenin), and total β-catenin (β-catenin). (d) STF3a cells were treated with indicated concentrations of SKLB-677 for 24 h. MYC, CCND1, and NKD1 mRNA expressions were determined through real-time qPCR analysis. All samples were normalized to the level of GAPDH (mean ± SEM from triplicate reactions). *P < 0.05, **P < 0.01, ***P < 0.005. (e) Representative images of zebrafish embryos at 24hpf with tail formation after incubation with various concentrations of SKLB-677 for 20 h. (f) Zebrafish embryos were injected with wnt8.1 mRNA (30 pg) or vehicle mRNA (phaenotype control). […]. Results shown in the histogram are expressed as the percentage of embryos in each phenotypic class after the treatment (n > 70). Class 1: wild-type, class 2: posteriorized, resulting in the loss of the eyes, and class 3: more severely posteriorized, as evidenced by head truncation.

[17] = tested on: MYC, CCND1, NKD1 transcripts in STF3a cells; test: Real-time qPCR of β-catenin target genes in STF3a cells; assay type: cell-based; conditions: 24 h
[18] = tested on: active β-catenin, NKD1, AXIN2 in MV4-11 tumors; test: Wnt/β-catenin signaling in MV4-11 xenograft tumors (western blot, qPCR); assay type: in vivo, NOD-SCID mice; conditions: single oral dose 10 mg/kg
Method: Western blot assays and real-time qPCR assays were conducted on the harvested tumors.
Whole protein lysates of tumor samples were collected by the abrading of tumors in liquid nitrogen. […] Quantitative analysis of the protein level was performed with NIH image analysis software, ImageJ (normalized relative to the vehicle control).
Total RNA of cell samples and tumor samples was extracted using RNAsimple total RNA kit (TIANGEN) according to the manufacturer’s instructions. cDNA was generated using the iScript^TMcDNA Synthesis Kit (Bio-Rad), and the RT-PCR reactions were performed using SsoAdvanced SYBR Green Supermix (Bio-Rad). The reaction consisted of 40 cycles of denaturation at 95 °C for 5 s and annealing/extension for 30s at 60 °C.
The mice were assigned to 5 groups (n = 6 in each group). […] The mean values ± SD are shown. […] Representative images were shown.

[19] = tested on: MV4-11; test: MTT cell viability assay; conditions: Homo sapiens, MV4-11, 72 h
[20] = tested on: HL-60; test: MTT cell viability assay; conditions: Homo sapiens, HL-60, 72 h
[21] = tested on: Jurkat; test: MTT cell viability assay; conditions: Homo sapiens, 72 h
[22] = tested on: U266; test: MTT cell viability assay; conditions: Homo sapiens, U-266, 72 h
[23] = tested on: Raji; test: MTT cell viability assay; conditions: Homo sapiens, 72 h
[24] = tested on: Karpas-299; test: MTT cell viability assay; conditions: Homo sapiens, KARPAS-299, 72 h
[25] = tested on: A549; test: MTT cell viability assay; conditions: Homo sapiens, A549, 72 h
[26] = tested on: SMMC7721; test: MTT cell viability assay; conditions: Homo sapiens, SMMC-7721, 72 h
[27] = tested on: BEL7402; test: MTT cell viability assay; conditions: Homo sapiens, Bel-7402, 72 h
[28] = tested on: HeLa; test: MTT cell viability assay; conditions: Homo sapiens, 72 h
[29] = tested on: MCF-7; test: MTT cell viability assay; conditions: Homo sapiens, MCF7, 72 h

SMILES | IC50 [19] | IC50 [20] | IC50 [21] | IC50 [22] | IC50 [23] | IC50 [24] | IC50 [25] | IC50 [26] | IC50 [27] | IC50 [28] | IC50 [29] | other results
CC(C)(C)c1cc(NC(=O)Nc2ccc(Oc3ncnc4[nH]ncc34)c(F)c2)no1 [SKLB-677, 1-(4-(1H-pyrazolo[3,4-d]pyrimidin-4-yloxy)-3-fluorophenyl)-3-(5-tert-butylisoxazol-3-yl)urea] | 0.079 nM | 8.9 µM | 4.3 µM | > 10 µM | 7.9 µM | 7 µM | 6.4 µM | > 10 µM | > 10 µM | 9.45 µM | > 10 µM | remaining binding at 10 µM [1]: 73%; remaining binding at 10 µM [2]: 85%; remaining binding at 10 µM [3]: 75%; remaining binding at 10 µM [4]: 96%; remaining binding at 10 µM [5]: 1.2%; remaining binding at 10 µM [6]: 2%; remaining binding at 10 µM [7]: 0.45%; remaining binding at 10 µM [8]: 8.4%; remaining binding at 10 µM [9]: 100%; remaining binding at 10 µM [10]: 88%; remaining binding at 10 µM [11]: 66%; remaining binding at 10 µM [12]: 78%; remaining binding at 10 µM [13]: 80%; remaining binding at 10 µM [14]: 3.2%; remaining binding at 10 µM [15]: 7.8%; IC50 ([16]; STF3A, read-out: IC50, inhibition of the Wnt/β-catenin signaling): < 0.1 µM; MYC, CCND1, and NKD1 transcripts [17]: reduced; mRNA level of NKD1 and AXIN2 in tumors [18]: down-regulated; protein levels of active β-catenin and NKD1 in tumors [18]: induced the reduction; IC50 ([19]; read-out: Cell viability IC50): 0.079 nM
O=C(Nc1ccc(Oc2ncnc3[nH]ncc23)cc1)Nc1ccc(Cl)c(C(F)(F)F)c1 [Compound 1, 1-(4-(1H-pyrazolo[3,4-d]pyrimidin-4-yloxy)phenyl)-3-(4-chloro-3-(trifluoromethyl)phenyl)urea] | 4 nM | > 10 µM | 8.72 µM | > 10 µM | > 10 µM | > 10 µM | > 10 µM | > 10 µM | > 10 µM | > 10 µM | > 10 µM | attenuation of Wnt/β-catenin signaling ([16]; STF3a cells): very weak activity
